# “And” between values parts separate entries of the source, which are not always exact repeats. Equal entries are not always repeated.
# How the values were obtained:
# [1] = tested on: modified HGP-30 (mH, SEQ ID NO:6); experiment: Isotype analysis (ELISA) of anti-mH antibody in sera of immunized mice; assay type: in vivo; design: IgG1 / IgG2a / IgG2b / IgG3: unit not given here; details: for IgG1 / IgG2a / IgG2b / IgG3: ELISA signal, day 42 test bleeding; for Ig1, serial dilution 1:200 / Ig1, serial dilution 1:800 / Ig1, serial dilution 1:3200 / Ig1, serial dilution 1:12800 / Ig1, serial dilution 1:51200 / Ig1, serial dilution 1:204800 / Ig2a, serial dilution 1:200 / Ig2a, serial dilution 1:800 / Ig2a, serial dilution 1:3200 / Ig2a, serial dilution 1:12800 / Ig2a, serial dilution 1:51200 / Ig2a, serial dilution 1:204800 / Ig2b, serial dilution 1:200 / Ig2b, serial dilution 1:800 / Ig2b, serial dilution 1:3200 / Ig2b, serial dilution 1:12800 / Ig2b, serial dilution 1:51200 / Ig2b, serial dilution 1:204800 / Ig3, serial dilution 1:200 / Ig3, serial dilution 1:800 / Ig3, serial dilution 1:3200 / Ig3, serial dilution 1:12800 / Ig3, serial dilution 1:51200 / Ig3, serial dilution 1:204800: day 28 pool
# Description: (§1) Mice in groups (5-10 animals per group as designated) are immunized with the LEAPS constructs (25 μg/dose) of SEQ ID NO's:37, 38 and 39, in 0.2 mL emulsified 1:1 with adjuvant (Seppic's ISA-51 or Corixa's microfluidized MPL S/E) on days 0 and 14. Mice are evaluated by Delayed Type of Hypersensitivity (DTH) by inoculation on day 26 with 20 μl of a solution of saline or mH (SEQ ID NO:6) (25 μg in saline) in the left or right ear respectively. The DTH response is determined by measurement of the ear thickness 48 hours later and expressed as increase in ear thickness (mm) of experimental ear compared to that of the control ear. Individual animal sera are collected for measurement of antibody on day 28, 42, 63 and 77. Sera from individual animals and group pools are evaluated for specific anti-mH antibody, for total antibody, IgG1, IgG2a and IgG3 antibody isotype and cross clade titer at selected time points as indicated.
# The results of an isotype analysis of day 42 test bleedings with G′-mH (SEQ ID NO:37), G-mH (SEQ ID NO:38), J-mH (SEQ ID NO:39), F-mH (SEQ ID NO:40) and F-HGP-30 (SEQ ID NO:41), are shown in Table 1.
# An isotype analysis for pools of day 28 test bleedings G-mH, G′-mH and m-HGP-30/KLH using either MPL S/E or ISA51 as adjuvant, are shown in Table 3.
# B Clade = experiment: ELISA cross clade recognition by sera of immunized mice, B Clade; assay type: in vivo; details: for ELISA test antigen B Clade: day 42 test bleeding
# Description: as §1
# (§2) The mouse sera for the ELISA was used at a dilution of 1:200. Again, clearly, the construct provides higher signals indicative of higher levels of the antibodies that recognized other clades besides the parental one (Clade B) of mH.
# (§3) A cross clade analysis for pools of day 42 test bleedings from the same groups as used in Table 3, were obtained and the results are shown in Table 4.
# C Clade = experiment: ELISA cross clade recognition by sera of immunized mice, C Clade; assay type: in vivo; details: for ELISA test antigen C Clade: day 42 test bleeding
# Description: as §1, §2, §3
# E Clade = experiment: ELISA cross clade recognition by sera of immunized mice, E Clade; assay type: in vivo; details: for ELISA test antigen E Clade: day 42 test bleeding, Group Average
# Description: as §1, §2, §3
# Peptide G = experiment: Specificity analysis for the TCBL carrier, ELISA plates coated with Peptide G; assay type: in vivo, Mice; details: for A 490 1:200 dilution on plates coated with Peptide G: Average
# Description: as §1
# A specificity analysis for the TCBL or KLH carrier for pools of day 42 test bleedings from the G-mH, G′-mH and mH/KLH, using either MPL S/E or ISA51 as adjuvant, was carried out (all sera assayed at a dilution of 1:200) and the results are shown in Table 5. […] This observation is especially significant for vaccines used on a repetitive basis, such as, either a vaccine that requires more frequent intervals between boosters for maintenance of cellular reactivity or as a therapeutic vaccine.
# modified HGP-30 = experiment: ELISA for antibody after antisera depletion of CD4 or CD8 cells (FIG. 2); assay type: in vivo, Mice; details: pretreatment with anti-CD4, day 28, p=0.002 (FIG. 2)
# Source text: Select immunoglobulin preparations were obtained from Dr. Stephen Hoffmann, Malaria Program, U.S. Navy. […] This allows one to determine some parts of the nature of various cellular (e.g., T-cell) involvement in the early stage of immune system response with the LEAPS peptide-constructs. It is recognized, however, that this is only a temporary event since new cells are continuously being developed from stem cells and the animals become resistant to the reagents.
# The animals are pretreated with the antisera as indicated for 5 days before the initial immunization with peptide-construct having SEQ ID NO:37 or SEQ ID NO:39 on […]. No pretreatment is done before the booster immunization on day 14 or DTH on day 26-28. The mice are then inoculated with the test antigen or saline (control) on day 26 in the left and right ears, respectively, and the DTH response is measured on day 28. The difference between the values for the test and saline control ears is calculated for each group of five animals along with the standard error of the mean (sem) and the results are plotted (see FIG. 1). Also shown in FIG. 1 are values for the untreated animals and animals immunized on day 14 only.
# This example is similar to Example 2 but using a more sensitive ELISA test for antibody type. […] This was not the case, however, with pretreatment using anti-CD8 or normal rat IgG. […]
# [2] = group without '(with MPL)' (ISA51)
# [3] = day 63 test bleeding, sera 1:200, individual mouse
substance,measurement,setting,value
"DGQ EEK AGV VST GLI GGG ATL YSV HQR IDV KDT KEA LEK IEE EQN KS (DGQEEKAGVVSTGLIGGGYLSGANLNL) [SEQ ID NO: 57, Peptide G′ linked by GGG spacer to modified HGP-30 (mH)]",IgG1,[1]; group Average,2.667
same,IgG2a,[1]; group Average,1.427
same,IgG2b,[1]; group Average,1.695
same,IgG3,[1]; group Average,1.562
same,IgG1,[1]; individual mouse,2.577 and 2.623 and 2.588 and 2.601 and 2.757 and 2.886 and 2.768 and 2.574 and 2.628 and 2.671
same,IgG2a,[1]; individual mouse,1.399 and 1.302 and 1.630 and 0.467 and 1.249 and 2.275 and 0.998 and 1.693 (2×) and 1.566
same,IgG2b,[1]; individual mouse,2.050 and 1.588 and 1.735 and 0.534 and 1.261 and 2.717 and 1.656 and 2.009 and 1.613 and 1.785
same,IgG3,[1]; individual mouse,1.853 and 1.268 and 1.856 and 1.229 and 2.186 and 1.921 and 1.276 and 2.181 and 0.672 and 1.183
same,"Ig1, serial dilution 1:200",[1]; [2],3.006
same,"Ig1, serial dilution 1:800",[1]; [2],2.441
same,"Ig1, serial dilution 1:3200",[1]; [2],1.755
same,"Ig1, serial dilution 1:12800",[1]; [2],1.069
same,"Ig1, serial dilution 1:51200",[1]; [2],0.367
same,"Ig1, serial dilution 1:204800",[1]; [2],0.114
same,"Ig2a, serial dilution 1:200",[1]; [2],0.729
same,"Ig2a, serial dilution 1:800",[1]; [2],0.218
same,"Ig2a, serial dilution 1:3200",[1]; [2],0.068
same,"Ig2a, serial dilution 1:12800",[1]; [2],0.025
same,"Ig2a, serial dilution 1:51200",[1]; [2],0.015
same,"Ig2a, serial dilution 1:204800",[1]; [2],0.008
same,"Ig2b, serial dilution 1:200",[1]; [2],1.420
same,"Ig2b, serial dilution 1:800",[1]; [2],0.505
same,"Ig2b, serial dilution 1:3200",[1]; [2],0.134
same,"Ig2b, serial dilution 1:12800",[1]; [2],0.054
same,"Ig2b, serial dilution 1:51200",[1]; [2],0.014
same,"Ig2b, serial dilution 1:204800",[1]; [2],0.000
same,"Ig3, serial dilution 1:200",[1]; [2],1.132
same,"Ig3, serial dilution 1:800",[1]; [2],0.358
same,"Ig3, serial dilution 1:3200",[1]; [2],0.092
same,"Ig3, serial dilution 1:12800",[1]; [2],0.020
same,"Ig3, serial dilution 1:51200",[1]; [2],0.004
same,"Ig3, serial dilution 1:204800",[1]; [2],0.000
same,"Ig1, serial dilution 1:200",[1]; with MPL,2.642
same,"Ig1, serial dilution 1:800",[1]; with MPL,1.638
same,"Ig1, serial dilution 1:3200",[1]; with MPL,0.652
same,"Ig1, serial dilution 1:12800",[1]; with MPL,0.279
same,"Ig1, serial dilution 1:51200",[1]; with MPL,0.091
same,"Ig1, serial dilution 1:204800",[1]; with MPL,0.014
same,"Ig2a, serial dilution 1:200",[1]; with MPL,1.961
same,"Ig2a, serial dilution 1:800",[1]; with MPL,0.899
same,"Ig2a, serial dilution 1:3200",[1]; with MPL,0.263
same,"Ig2a, serial dilution 1:12800",[1]; with MPL,0.081
same,"Ig2a, serial dilution 1:51200",[1]; with MPL,0.028
same,"Ig2a, serial dilution 1:204800",[1]; with MPL,0.005
same,"Ig2b, serial dilution 1:200",[1]; with MPL,1.872
same,"Ig2b, serial dilution 1:800",[1]; with MPL,0.881
same,"Ig2b, serial dilution 1:3200",[1]; with MPL,0.253
same,"Ig2b, serial dilution 1:12800",[1]; with MPL,0.104
same,"Ig2b, serial dilution 1:51200",[1]; with MPL,0.011
same,"Ig2b, serial dilution 1:204800",[1]; with MPL,0.006
same,"Ig3, serial dilution 1:200",[1]; with MPL,1.965
same,"Ig3, serial dilution 1:800",[1]; with MPL,0.805
same,"Ig3, serial dilution 1:3200",[1]; with MPL,0.215
same,"Ig3, serial dilution 1:12800",[1]; with MPL,0.045
same,"Ig3, serial dilution 1:51200",[1]; with MPL,0.005
same,"Ig3, serial dilution 1:204800",[1]; with MPL,0.000
same,Levels of TH1 preferred isotypes relative to TH2 isotype (IgG1),"[1]; day 42 test bleedings, Table 1, in words",significantly higher signals
same,ELISA test antigen B Clade,"B Clade; group (A), Group Average",0.346
same,ELISA test antigen B Clade,"B Clade; group (A), individual mouse",0.271 and 0.000 and 0.036 and 0.507 and 0.187 and 1.074
same,ELISA test antigen B Clade,"B Clade; group (B), Group Average",1.410
same,ELISA test antigen B Clade,"B Clade; group (B), individual mouse",2.348 and 0.496 and 1.799 and 1.228 and 2.244 and 0.349
same,ELISA signal on B Clade,B Clade; [3],1.667 and 0.160 and 0.099 and 0.236 and 1.547 and 0.470 and 1.138 and 0.994 and 0.000 and 0.505
same,ELISA test antigen C Clade,"C Clade; group (A), Group Average",0.712
same,ELISA test antigen C Clade,"C Clade; group (A), individual mouse",0.616 and 0.000 and 0.518 and 0.920 and 0.767 and 1.454
same,ELISA test antigen C Clade,"C Clade; group (B), Group Average",1.559
same,ELISA test antigen C Clade,"C Clade; group (B), individual mouse",2.575 and 0.837 and 1.711 and 2.254 and 0.911 and 1.070
same,ELISA signal on C Clade,C Clade; [3],1.454 and 0.127 and 0.427 and 0.073 and 1.592 and 0.651 and 1.365 and 1.139 and 0.008 and 1.191
same,ELISA test antigen E Clade,E Clade; group (A),0.035
same,ELISA test antigen E Clade,E Clade; group (B),0.094
same,ELISA signal on E Clade,E Clade; [3],0.933 and 0.030 and 0.113 and 0.041 and 0.000 (2×) and 0.029 and 0.068 and 0.006 and 0.271
same,A 490 1:200 dilution on plates coated with Peptide G,"Peptide G; day 42, first set of groups",0.080 A 490
same,A 490 1:200 dilution on plates coated with Peptide G,"Peptide G; day 42, second set of groups",0.062 A 490
same,Reactivity toward the delivery vehicle TCBL,"Peptide G; day 42 sera at 1:200, Table 5, in words",minimal reactivity
same,Antibody detection by ELISA after antisera depletion,modified HGP-30,completely eliminated any antibodies from being detected
